Substitutions are numbered along the chain they refer to. In names and notes the source's numbering stands. Read-outs that look alike come from different tables or passages of the source. Starred links: 1 amine or outer side, 2 acyl side, 3 side chain; linkers in the order of their positions; H or OH if unused. Positions of bridges follow the written chain, without caps; N, C: chain ends. Non-standard residues stand in square brackets, D forms with d. Residues, ends and D or L forms follow the SMILES beside them. *: point of attachment. Leu(3R-OH,Nα-propionyl) = CCC(=O)N[C@H](C(=O)*)[C@H](O)C(C)C; X1 = CC(C)[C@@H](O[*:3])[C@H](N[*:1])C(=O)[*:2]; NMeT = CN[C@H](C(=O)O)[C@@H](C)O; dPhLac = O=C(O)[C@H](O)Cc1ccccc1; NMeA = CN[C@@H](C)C(=O)O; NMeDha = C=C(NC)C(=O)O
Assays:
[1] = Stability in buffer at pH 5.6 and in lysosomes; format: in vitro ADME; conditions: buffer pH 5.6, lysosomes, 4 h, FIG. 5D
Procedure: In vitro stability of Compound (A2) was tested in plasma and blood from different species (FIG. 5A). […]

[2] = test system: Human Platelet Rich Plasma (PRP); conditions: human PRP, 0.1, 1 and 150 nM, 4, 16 or 24 h, TRAP6 32 uM, FIG. 11
Procedure: Platelet aggregation was then measured following treatment with Thrombin Receptor Activating Peptide 6 (TRAP6) at 32 uM.

92.1 cells = assay: Annexin V flow cytometry apoptosis assay, 92.1 cells; format: cell-based; conditions: 92.1 and MIAPACA cells, FIG. 2
Procedure: (§1) 92.1 and MIAPACA cells were seeded in 96-well plates (5000 cells per well) and treated with increasing concentrations of Compound (A1), Compound (A2), and a fixed dose of Staurosporine (100 nM, positive control) as indicated. Following drug treatment for 96, cells were subjected to fluorescence-activated flow cytometry using an Annexin V antibody conjugated to a fluorescent dye. Data presented as mean of 3 independent replicates.
as §1, with “92.1” for “92.1 and MIAPACA”, “3207-(B1) (Isotype control), G4-(B1),” for “Compound (A2),”, “G1-(B1)” for “a fixed dose of Staurosporine (100 nM, positive control)”

[3] = Plasma stability of Compound (A1) in mouse, rat, monkey and human plasma compared to buffer; format: in vitro ADME; conditions: over 24 h, FIG. 4A-4B
Procedure: The plasma stability of Compound (A1) was investigated in mouse, rat, monkey and human plasma and compared to buffer. Both disappearance of Compound (A1) (FIG. 4A) as well as appearance of the ring-opened form of Compound (A1) having the structure of Compound (A4)
[drawing 153] (FIG. 4B) were monitored over 24 h.

[4] = test system: MIAPACA pancreatic ductal adenocarcinoma cells; assay: Resazurin-based viability assay, MIAPACA cells; format: cell-based; conditions: Homo sapiens, MIA PaCa-2, WT, 96 or 120 hours, Table 4
Procedure: 92.1 uveal melanoma and MIAPACA pancreatic ductal adenocarcinoma cells were seeded at low cell density in 96-well plates and treated with increasing concentrations of Compound (A1) or Compound (A2) as indicated. Following drug treatment for 96 or 120 hours, cell viability and proliferation were determined using a resazurin-based viability assay. Briefly, cells were incubated with a resazurin-based solution and color change was detected by absorbance with a spectrophotometer and used as a readout of cell viability. Data presented as mean of 3 independent replicates and relative to PBS-treated cells (control).

[5] = PK of Compound (A1) after intravenous dosing in mouse; format: in vivo; conditions: for Vd: read-out: Vss
Description: Table 5 summarizing all PK values is shown below.

GNAQ/11 = assay: IP1 levels by TR-FRET in 92.1 uveal melanoma cells; format: cell-based; conditions: 92.1 cells, overnight treatment, FIG. 3A
Procedure: (§2) 92.1 uveal melanoma were treated with increasing concentrations of Compound (A1) or Compound (A2) as indicated. Following drug treatment overnight, cells were processed for determination of IP1 levels using TR-FRET (time-resolved fluorescent resonance energy transfer) or protein levels by western-blotting.
92.1 uveal melanoma were treated with DMSO, Compound (A1) (8 nM) and increasing concentrations of Isotype-(B1), anti-PMEL17-(B1) and anti-PMEL17-(B2) ADCs as indicated. Following drug treatment for 2 days, cells were processed for determination of IP1 levels using TR-FRET (time-resolved fluorescent resonance energy transfer). IP1 levels (nM) are presented as mean of 3 independent replicates.

ERK signaling = assay: Western-blotting of 92.1 cells, ERK signaling; format: cell-based; conditions: FIG. 3C
Procedure: as §2

92.1 uveal melanoma = assay: Resazurin-based viability assay, 92.1 uveal melanoma cells; format: cell-based
Procedure: (§3) Following drug treatment for 96 or 120 hours, cell viability and proliferation were determined using a resazurin-based viability assay. Briefly, cells were incubated with a resazurin-based solution and color change was detected by absorbance with a spectrophotometer and used as a readout of cell viability. Data presented as mean of 3 independent replicates and relative to PBS-treated cells (control).
as §3, with “(control) (FIG. 6).” for “(control).”
Following drug treatment for 96 or 120 hours, cell viability and proliferation were determined using a resazurin-based viability assay. Data presented as mean of 3 independent replicates and relative to PBS-treated cells (control) (FIG. 8).
as §3

[6] = test system: 92.1-luciferase subcutaneous xenografts; assay: 92.1-luciferase subcutaneous xenograft tumor growth in female nude mice; format: in vivo
Procedure: Treatment (single dose i.v. injection) was performed 17 days post tumor inoculation. Values are mean±SEM; sample size, (n=5-12 mice per group). Initial tumor volume at day 0 was approximately 200-250 mm^3.
Treatments (single dose i.v. injection) were performed 17 days post tumor inoculation. Values represent mean±SEM; sample size, (n=5-6 mice per group). Initial tumor volume at day 0 was approximately 300-325 mm^3. (FIG. 16).
Treatment (single dose i.v. injection) was performed 14-17 days post tumor inoculation. Values are mean±SEM; sample size, (n=5-12 mice per group). Initial tumor volume at day 0 was approximately 200-250 mm3.

[7] = Exposure of ADC formats in an in vivo efficacy study and payload ring-opening on the antibody; parameters: species or system mice; conditions: formats of G1-(B1), in vivo efficacy study, FIG. 14D
Description: [drawing 156] (filled circles) while being conjugated to the antibody was shown in vivo in mice (FIG. 14C). […] From comparing the PK of the non-targeted 3207-ADCs (FIG. 14E) one can deduce that the Fc-silencing has a significant effect on lowering the clearance of the DAR4 format.

C=C1C(=O)N[C@@H](C)C(=O)N(C)[C@@H](C)C(=O)N[C@@H]([C@H](OC(=O)[C@@H](NC(=O)CC)[C@H](O)C(C)C)C(C)C)C(=O)N(C)[C@@H]([C@@H](C)OC)C(=O)O[C@H](C(C)C)[C@H](NC(C)=O)C(=O)O[C@H](Cc2ccccc2)C(=O)N1C [Compound (A1), (R)-1-((3S,6S,9S,12S,18R,21S,22R)-21-acetamido-18-benzyl-22-isopropyl-3-((R)-1-methoxyethyl)-4,9,10,12,16-pentamethyl-15-methylene-2,5,8,11,14,17,20-heptaoxo-1,19-dioxa-4,7,10,13,16-pentaazacyclodocosan-6-yl)-2-methylpropyl (2S,3R)-3-hydroxy-4-methyl-2-propionamidopentanoate] (Ac-[X1][dPhLac][NMeDha]A[NMeA][X1](Leu(3R-OH,Nα-propionyl))[NMeT](Me); ester 1-C)
stability in buffer and lysosomes [1]: stable in buffer at pH 5.6 and in lysosomes over 4 h
platelet aggregation after TRAP6 [2]: induced platelet aggregation
apoptosis (Annexin V) (92.1 cells): induced apoptosis in UM cells in GNAQ/11 dependent manner
transformation of Compound (A1) to ring-opened form in plasma [3]: slightly faster in human plasma
GI50 [4]: > 10000 nM
AUCinf/D (nM*h/(mg/kg)) ([5]; 0.2 mg/kg): 82 nM*h/(mg/kg)
C0/D (nM/(mg/kg)) ([5]; 0.2 mg/kg): 217 nM/(mg/kg)
Cmax/D (nM/(mg/kg)) ([5]; 0.2 mg/kg): 156 nM/(mg/kg)
AUCinf/D (nM*h/(mg/kg)) ([5]; 0.4 mg/kg): 118 nM*h/(mg/kg)
C0/D (nM/(mg/kg)) ([5]; 0.4 mg/kg): 270 nM/(mg/kg)
Cmax/D (nM/(mg/kg)) ([5]; 0.4 mg/kg): 208 nM/(mg/kg)
AUCinf/D (nM*h/(mg/kg)) ([5]; 0.8 mg/kg): 171 nM*h/(mg/kg)
C0/D (nM/(mg/kg)) ([5]; 0.8 mg/kg): 475 nM/(mg/kg)
Cmax/D (nM/(mg/kg)) ([5]; 0.8 mg/kg): 300 nM/(mg/kg)
exposure with dose ([5]; 0.2-0.8 mg/kg): slightly over-proportional increase of exposure with dose
clearance ([5]; FIG. 4D): very high clearance
volume of distribution ([5]; FIG. 4D): moderate to high volume of distribution
AUC(0-inf) ([5]; in vivo, 0.2 mg/kg): 0.016 µM·h
C0 ([5]; in vivo, 0.2 mg/kg): 43 nM
Cmax ([5]; in vivo, 0.2 mg/kg): 31 nM
clearance ([5]; in vivo, 0.2 mg/kg, read-out: CL): 204 mL/min/kg
Vd ([5]; in vivo, 0.2 mg/kg): 8.6 L/kg
AUC(0-inf) ([5]; in vivo, 0.4 mg/kg): 0.047 µM·h
C0 ([5]; in vivo, 0.4 mg/kg): 108 nM
Cmax ([5]; in vivo, 0.4 mg/kg): 83 nM
clearance ([5]; in vivo, 0.4 mg/kg, read-out: CL): 141 mL/min/kg
Vd ([5]; in vivo, 0.4 mg/kg): 4.9 L/kg
AUC(0-inf) ([5]; in vivo, 0.8 mg/kg): 0.137 µM·h
C0 ([5]; in vivo, 0.8 mg/kg): 380 nM
Cmax ([5]; in vivo, 0.8 mg/kg): 240 nM
clearance ([5]; in vivo, 0.8 mg/kg, read-out: CL): 97 mL/min/kg
Vd ([5]; in vivo, 0.8 mg/kg): 4.6 L/kg
IP1 levels (GNAQ/11): reduced IP1 levels
ERK signaling (immunoblots) (ERK signaling): reduced ERK signaling
GI50 (92.1 uveal melanoma; 92.1, GNAQ^Q209L, 96 or 120 hours, Table 4, read-out: GI50): 0.18 nM
GI50 (92.1 uveal melanoma; 92.1 GNAQ^Q209L, Table 1, read-out: GI50 (nM) 92.1GNAQ^Q209L): 0.467 nM
anti-UM activity (92.1 uveal melanoma; 92.1 vs MIAPACA, FIG. 1): potent target-dependent anti-UM activity

B1: G1-E152C-DAR2-(B1) (conjugate)
heavy: QVQLVQSGAEVKKPGSSVKVSCKASGGTFSDYAITWVRQAPGQGLEWMGGIIPIFGTANYAQKFQGRVTITADESTSTAYMELSSLRSEDTAVYYCAREGGLLTDISYSRYWFAYWGQGTLVTVSS
light: DIELTQPPSVSVSPGQTASITCSGDALRDKFVYWYQQKPGQAPVLVIYDDNNRPSGIPERFSGSNSGNTATLTISGTQAEDEADYYCQSWDHSYSLVVFGGGTKLTVLGQPKAAPSVTLFPPSSEELQANKATLVCLISDFYPGAVTVAWKADSSPVKAGVETTTPSKQSNNKYAASSYLSLTPEQWKSHRSYSCQVTHEGSTVEKTVAPTECS
modifications: left off: a dimerising Fc or GST
antitumor activity ([6]; 7.5 mg/kg single dose i.v., FIG. 16): comparable antitumor activity
clearance / exposure of ADC formats [7]: lowest clearance
GI50 (92.1 uveal melanoma; 92.1, Table 10, read-out: GI50): 0.365 nM

B2: Fc Silent G1-3J-DAR2 (E152C)-(B1) (conjugate)
heavy: B1 heavy
light: B1 light with D1S, I2Y, P8L, S13A, P14L, S19R, G76R, T77A, E80G
modifications: left off: a dimerising Fc or GST
tumor growth ([6]; single i.v. injection, FIG. 18): inhibited tumor growth in a dose-dependent manner
GI50 (92.1 uveal melanoma; 92.1, Table 10, read-out: GI50): 0.278 nM

From patent US11779649B2, “Antibodies to PMEL17 and conjugates thereof” (Novartis AG, priority 2018, dated 2023)
